For this assay, the target named is T1, full-length human Mineralocorticoid Receptor (MR) (Homo sapiens, UniProt P08235).
T1 construct: host or cells: PathHunter CHO-K1 MR cells
T1 sequence (P08235 1-984): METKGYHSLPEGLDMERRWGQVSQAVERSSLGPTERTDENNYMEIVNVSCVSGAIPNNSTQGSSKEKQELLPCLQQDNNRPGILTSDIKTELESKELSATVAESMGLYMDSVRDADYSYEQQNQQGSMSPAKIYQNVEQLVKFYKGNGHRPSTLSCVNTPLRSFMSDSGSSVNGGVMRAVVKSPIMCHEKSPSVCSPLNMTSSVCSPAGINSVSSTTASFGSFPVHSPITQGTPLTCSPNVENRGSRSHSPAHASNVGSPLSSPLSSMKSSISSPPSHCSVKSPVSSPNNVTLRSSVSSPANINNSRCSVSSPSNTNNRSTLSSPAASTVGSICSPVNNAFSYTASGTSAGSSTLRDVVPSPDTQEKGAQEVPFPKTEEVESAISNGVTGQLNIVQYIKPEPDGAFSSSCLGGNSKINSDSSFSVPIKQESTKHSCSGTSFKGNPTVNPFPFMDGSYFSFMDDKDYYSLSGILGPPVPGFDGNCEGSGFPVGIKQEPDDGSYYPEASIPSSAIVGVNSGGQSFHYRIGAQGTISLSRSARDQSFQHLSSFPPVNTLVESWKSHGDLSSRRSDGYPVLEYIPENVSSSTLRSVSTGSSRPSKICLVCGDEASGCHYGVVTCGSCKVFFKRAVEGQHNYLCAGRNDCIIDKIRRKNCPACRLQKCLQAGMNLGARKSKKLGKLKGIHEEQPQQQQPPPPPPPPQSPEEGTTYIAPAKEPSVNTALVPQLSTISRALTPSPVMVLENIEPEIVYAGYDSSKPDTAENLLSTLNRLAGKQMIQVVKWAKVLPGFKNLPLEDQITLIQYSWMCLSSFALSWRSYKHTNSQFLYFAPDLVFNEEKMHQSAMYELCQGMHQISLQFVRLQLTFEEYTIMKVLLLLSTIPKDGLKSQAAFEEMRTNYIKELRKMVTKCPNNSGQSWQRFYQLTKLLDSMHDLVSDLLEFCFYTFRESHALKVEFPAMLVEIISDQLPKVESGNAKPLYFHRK
Put plainly: human MR NH Pro assay (PathHunter Protein:Protein interaction assay), MR antagonism. The class given is cell-based. The settings on record: IP = inflection point of the dose-response curve; CHO-K1 cells overexpressing human MR, aldosterone about 0.3 nM to about 1 nM, 6 hours at 37° C. The text has this:
The activity of the compounds of the present invention regarding mineralocorticoid receptor antagonism can be evaluated using the following assay.
Assessment of MR Potency in HMR NH Pro Assay
The human MR NH Pro assay is a commercially available PathHunter™ Protein:Protein interaction assay (DiscoveRx; http://www.discoverx.com/nhrs/prod-nhrs.php) that measures the ability of compounds to antagonize full-length human Mineralocorticoid Receptor (MR) binding to a coactivator peptide.
Stock solution was prepared at 10 μM in DMSO and stored at −20° C. for assay, dilute in assay media to 1.8 or 6 nM (6× of final concentration=about 0.3 nM to about 1.0 nM)
5. Cell line: PathHunter CHO-K1 MR cells Cat #93-0456C2, Lot No: 09B0913, from operation liquid nitrogen stock.
6. Control Antagonist: Spironolactone: Sigma #S-3378 and Eplerenone Sigma #107724-20-9 (10 mM stock concentration also prepared in DMSO and stored at −20° C.).
1. Cells are grown in F12+FBS+Hygromycin+pen/strep+Genetin
2. Cells are collected with 0.05% trypsin and the cell suspension is spun and resuspended in a volume of F12+1.5% CD-FBS and counted.
3. The cells concentration was adjusted to 4×10^5 cells/mL.
4. Cells were (25 μL/well) added to the wells of a 384 well plate.
5. The plate was then incubated at 37° C. over night in a humidified incubator with 5% CO2.
6. Test compounds were titrated starting at 4.4 mM, 10-point titration in 1:3 dilution.
Protocol for 384 well plate format: 6 hr treatment:
1. 10K exponentially growing cells/well (25 μL) were resuspended in assay media and plated into each well using the Multidrop (Thermo Electron) (use white wall, clear bottom assay plates (Costar #3570) and incubated overnight at 37° C., 5% CO2.
2. 0.25 μL 120× test compound (final DMSO concentration should be <1%) was added to each well n=2, 10 point titrations starting at 36.7 μM final concentration.
4. 5 μL of assay media was added to all wells in column 23 and 24.
5. Cells were then incubated for 6 hrs at 37° C., 5% CO2.
6. 15 μL 3× DiscoveRx detection reagent was then added to each well.
7. Plates were incubated for 1 hour at room temperature in the dark.
8. Plates were read on Envision (PerkinElmer) luminesence plate reader and analyzed using ADA.
For `CCC(O)C(CC)(c1ccc(S(F)(F)(F)(F)F)cc1)n1ncc2c(NS(C)(=O)=O)cccc21` (single isomer, unassigned) [Compound 25, N-(1-{4-hydroxy-3-[4-(pentafluoro-λ^6-sulfanyl)phenyl]hexan-3-yl}-1H-indazol-4-yl)methanesulfonamide], the IC50 came to 0.048 µM.

The molecule `CCC(O)C(CC)(c1ccc(S(F)(F)(F)(F)F)cc1)n1ncc2c(NS(C)(=O)=O)cccc21` (single isomer, unassigned) [Compound 26, N-(1-{4-hydroxy-3-[4-(pentafluoro-λ^6-sulfanyl)phenyl]hexan-3-yl}-1H-indazol-4-yl)methanesulfonamide] returned an IC50 of 1.13 µM.

Turning to `CCC(c1ccc(C(F)(F)F)cc1)(C(C)O)n1ncc2c(NS(C)(=O)=O)cc(F)cc21` (single isomer, unassigned) [Compound 32, N-(6-fluoro-1-(2-hydroxy-3-(4-(trifluoromethyl)phenyl)pentan-3-yl)-1H-indazol-4-yl)methanesulfonamide], the IC50 came to 0.027 µM.

In turn, `CCC(c1ccc(C(F)(F)F)cc1)(C(C)O)n1ncc2c(NS(C)(=O)=O)cc(F)cc21` (single isomer, unassigned) [Compound 33, N-(6-fluoro-1-(2-hydroxy-3-(4-(trifluoromethyl)phenyl)pentan-3-yl)-1H-indazol-4-yl)methanesulfonamide] had an IC50 of 1.11 µM.

On to `CCC(c1ccc(C(F)(F)F)cc1)(C(C)O)n1ncc2c(NS(C)(=O)=O)cc(F)cc21` (single isomer, unassigned) [Compound 34, N-(6-fluoro-1-(2-hydroxy-3-(4-(trifluoromethyl)phenyl)pentan-3-yl)-1H-indazol-4-yl)methanesulfonamide], for which it took 1.14 µM to reach half-maximal inhibition (IC50).

The molecule `CC(O)C(CC(F)F)(c1ccc(C(F)(F)F)cc1)n1ncc2c(NS(C)(=O)=O)cccc21` (single isomer, unassigned) [Compound 36, N-(1-(1,1-difluoro-4-hydroxy-3-(4-(trifluoromethyl)phenyl)pentan-3-yl)-1H-indazol-4-yl)methanesulfonamide] yielded a half-maximal inhibitory concentration (IC50) of 0.095 µM.

Take `CC(O)C(CC(F)F)(c1ccc(C(F)(F)F)cc1)n1ncc2c(NS(C)(=O)=O)cccc21` (single isomer, unassigned) [Compound 38, N-(1-(1,1-difluoro-4-hydroxy-3-(4-(trifluoromethyl)phenyl)pentan-3-yl)-1H-indazol-4-yl)methanesulfonamide]: inhibition was half-maximal at 0.596 µM (IC50).

The molecule `CCC(O)C(CC(F)F)(c1ccc(C(F)(F)F)cc1)n1ncc2c(NS(C)(=O)=O)cccc21` (single isomer, unassigned) [Compound 39, N-(1-(1,1-difluoro-4-hydroxy-3-(4-(trifluoromethyl)phenyl)hexan-3-yl)-1H-indazol-4-yl)methanesulfonamide] came in with an IC50 of 0.023 µM.

As for `CCC(O)C(CC(F)F)(c1ccc(C(F)(F)F)cc1)n1ncc2c(NS(C)(=O)=O)cccc21` (single isomer, unassigned) [Compound 40, N-(1-(1,1-difluoro-4-hydroxy-3-(4-(trifluoromethyl)phenyl)hexan-3-yl)-1H-indazol-4-yl)methanesulfonamide], the IC50 was found to be 0.015 µM.

As for `CCC(O)C(CC(F)F)(c1ccc(C(F)(F)F)cc1)n1ncc2c(NS(C)(=O)=O)cccc21` (single isomer, unassigned) [Compound 41, N-(1-(1,1-difluoro-4-hydroxy-3-(4-(trifluoromethyl)phenyl)hexan-3-yl)-1H-indazol-4-yl)methanesulfonamide], the midpoint of inhibition, the IC50, lay at 0.543 µM.

For `CCC(O)C(CC(F)F)(c1ccc(C(F)(F)F)cc1)n1ncc2c(NS(C)(=O)=O)cccc21` (single isomer, unassigned) [Compound 42, N-(1-(1,1-difluoro-4-hydroxy-3-(4-(trifluoromethyl)phenyl)hexan-3-yl)-1H-indazol-4-yl)methanesulfonamide], it took 1.37 µM to reach half-maximal inhibition (IC50).

Consider `CS(=O)(=O)Nc1cccc2c1cnn2C(CO)(CC(F)F)c1ccc(C(F)(F)F)cc1` (single isomer, unassigned) [Compound 43, N-(1-(4,4-difluoro-1-hydroxy-2-(4-(trifluoromethyl)phenyl)butan-2-yl)-1H-indazol-4-yl)methanesulfonamide], for which half-maximal inhibition (IC50) was put at 0.388 µM.

`CS(=O)(=O)Nc1cccc2c1cnn2C(CO)(CC(F)F)c1ccc(C(F)(F)F)cc1` (single isomer, unassigned) [Compound 44, N-(1-(4,4-difluoro-l-hydroxy-2-(4-(trifluoromethyl)phenyl)butan-2-yl)-1H-indazol-4-yl)methanesulfonamide] returned an IC50 of 0.539 µM.

`CS(=O)(=O)Nc1cccc2c1cnn2C(CC(F)F)(C(N)=O)c1ccc(C(F)(F)F)cc1` (single isomer, unassigned) [Compound 45, 4,4-difluoro-2-(4-(methylsulfonamido)-1H-indazol-1-yl)-2-(4-(trifluoromethyl)phenyl)butanamide] returned an IC50 of 0.274 µM.

The molecule `CCC(c1ccc(C(F)(F)F)cc1)(C(O)C(F)F)n1ncc2c(NS(C)(=O)=O)cccc21` (single isomer, unassigned) [Compound 48, N-(1-(1,1-difluoro-2-hydroxy-3-(4-(trifluoromethyl)phenyl)pentan-3-yl)-1H-indazol-4-yl)methanesulfonamide] had an IC50 of 0.006 µM.

The molecule `CCC(c1ccc(C(F)(F)F)cc1)(C(O)C(F)F)n1ncc2c(NS(=O)(=O)CC)cccc21` (single isomer, unassigned) [Compound 49, N-(1-(1,1-difluoro-2-hydroxy-3-(4-(trifluoromethyl)phenyl)pentan-3-yl)-1H-indazol-4-yl)ethanesulfonamide] yielded an IC50 of 0.007 µM.

On to `CCC(c1ccc(C(F)(F)F)cc1)(C(O)C(F)F)n1ncc2c(NS(=O)(=O)CC)cccc21` (single isomer, unassigned) [Compound 50, N-(1-(1,1-difluoro-2-hydroxy-3-(4-(trifluoromethyl)phenyl)pentan-3-yl)-1H-indazol-4-yl)ethanesulfonamide], for which half-maximal inhibition (IC50) required 0.004 µM.

`CCC(c1ccc(C(F)(F)F)cc1)(C(O)C(F)F)n1ncc2c(NS(C)(=O)=O)cc(F)cc21` (single isomer, unassigned) [Compound 51, N-(1-(1,1-difluoro-2-hydroxy-3-(4-(trifluoromethyl)phenyl)pentan-3-yl)-6-fluoro-1H-indazol-4-yl) methanesulfonamide]: the IC50 is 0.013 µM.

As for `CCC(c1ccc(C(F)(F)F)cc1)(C(O)C(F)F)n1ncc2c(NS(C)(=O)=O)cc(F)cc21` (single isomer, unassigned) [Compound 52, N-(1-(1,1-difluoro-2-hydroxy-3-(4-(trifluoromethyl)phenyl)pentan-3-yl)-6-fluoro-1H-indazol-4-l) methanesulfonamide], the IC50 came out at 0.028 µM.

`CCC(c1ccc(C(F)(F)F)cc1)(C(O)C(F)F)n1ncc2c(NS(=O)(=O)CC)cc(F)cc21` (single isomer, unassigned) [Compound 53, N-(1-(1,1-difluoro-2-hydroxy-3-(4-(trifluoromethyl)phenyl)pentan-3-yl)-6-fluoro-1H-indazol-4-yl)ethanesulfonamide] returned an IC50 of 0.011 µM.

Values taken from US9511052B2, “Mineralocorticoid receptor antagonists” (Merck Sharp & Dohme Corp., priority 2012, dated 2016).
